# Data published in patent publication US20240277693A1, “A PHARMACEUTICAL PRODUCT CONTAINING TASQUINIMOD AND A METHOD FOR ASSESSING THE PURITY OF SAID PRODUCT” (ACTIVE BIOTECH AB, priority 2021, published 2024).
# Experiments:
# [1] = Stability testing of capsules at 40° C./75% RH; format: physicochemical
# Description: In some embodiments, the method disclosed herein comprises storing (keeping) a sample of the pharmaceutical product for a period of time, preferably under selected conditions of temperature and humidity. The amount (or concentration) of tasquinimod and of at least one of compounds I, II, III and IV in the sample may preferably be determined at the beginning or before the storage period and at the end of the storage period. The selected storage conditions may include a temperature in the range of, for example, 20° C. to 40° C., and a relative humidity in the surrounding atmosphere in the range of, for example, 30% to 75%; e.g. 25° C. and 60% RH, or 30° C. and 65% RH, or 35° C. and 70% RH, or 40° C. and 75% RH. The storage period may extend over a time period in the range of, for example, several weeks to several years. For example, the stability testing period (“storage period”) may be 2 weeks, 3 weeks, 1 month, 2 months, 3 months, 4 months, 5 months, 6 months, 9 months, 1 year, 18 months, 2 years, 3 years, 4 years or even 5 years or longer. A shorter storage period may be selected by use of higher storage temperature and/or higher relative humidity (RH). The total amount of a tasquinimod decomposition product in the sample at the end of the storage period may be determined by, for example, HPLC.
# The batch of capsules manufactured in Example 2 was assessed by determining the amount of tasquinimod and the amount of compound III in a sample of the capsules, whereby the criterion for approving the batch was that a sample of capsules from the batch, at the end of a 1-month stability testing, contain not more than 1.0% w/w of compound III relative to the amount of tasquinimod. The stability testing consisted of keeping the capsules at 40° C./75% RH in open brown glass jars. At the end of the 1-month stability testing, the capsules contained 0.13% w/w of compound III, relative to the amount of tasquinimod (1.04 mg/capsule). Therefore, according to the selected criterion for approval, the batch of capsules was determined to be suitable for distribution.
# The batch of capsules manufactured in Example 7 was assessed by determining the amount of tasquinimod and the amount of compound III in a sample of the capsules, whereby the criterion for approving the batch was that a sample of capsules from the batch, at the end of a 3-month stability testing, contain not more than 1.0% w/w of compound III relative to the amount of tasquinimod in the capsules. The stability testing consisted of keeping the capsules at 40° C./75% RH in sealed brown glass jars. At the end of the stability testing, the capsules contained 0.08% w/w of compound III, relative to the amount of tasquinimod (0.493 mg/capsule). Therefore, according to the selected criterion for approval, the batch of capsules was determined to be suitable for distribution.
# The batch of capsules manufactured in Example 13 was assessed by determining the amount of tasquinimod and the amount of compound III in a sample of the capsules, whereby the criterion for approving the batch was that the capsules of the sample, at the end of a 3-month stability testing, contain not more than 1.0% w/w of compound III relative to the amount of tasquinimod in the capsules. The stability testing consisted of keeping the capsules, in a transparent, conventional blister pack, at 40° C./75% RH. At the end of the stability testing, the capsules contained 0.12% w/w of compound III, relative to the amount of tasquinimod (determined to be 0.253 mg/capsule). Therefore, according to the selected criterion for approval, the batch of capsules was determined to be suitable for distribution.
# [2] = Drug product stability studies (general observations); format: physicochemical
# Description: In a drug product, compound I is formed with compound II from hydrolysis of tasquinimod. […] Compound II is further decarboxylated to form compound III.
# Compound III is the decarboxylated species formed from the degradation of compound II.
# The mechanism for formation of compound IV in a drug product is unknown.
# [3] = 0.25 mg capsules of Example 10, 3 months, sealed brown glass jars
# [4] = 0.25 mg capsules of Example 10, 6 months, sealed brown glass jars
# [5] = 0.25 mg capsules of Example 13, 3 months, transparent blister pack
# [6] = 0.25 mg capsules of Example 13, 6 months, blister pack
# [7] = 0.5 mg capsules of Example 7, 3 months, sealed brown glass jars
# [8] = 0.5 mg capsules of Example 7, 6 months, sealed brown glass jars
# [9] = 1 mg capsules of Example 2, 1 month, open brown glass jars
# [10] = 1 mg capsules of Example 2, 2 months, open brown glass jars
# [11] = 1 mg capsules of Example 2, 3 months, open brown glass jars
# [12] = 1 mg capsules of Example 2, 6 months, open brown glass jars
# [13] = 1 mg capsules of Example 16, 3 months, transparent blister pack
# [14] = 1 mg capsules of Example 16, 6 months, blister pack
smiles,measurement,setting,value
"COc1cccc2c1c(O)c(C(=O)N(C)c1ccc(C(F)(F)F)cc1)c(=O)n2C [Tasquinimod, 4-hydroxy-5-methoxy-N, 1-dimethyl-2-oxo-N-[4-(trifluoromethyl)phenyl]-1,2-dihydroquinoline-3-carboxamide]",amount of tasquinimod in capsules,[1]; [3],0.253 mg/capsule
same,amount of tasquinimod in capsules,[1]; [4],0.247 mg/capsule
same,amount of tasquinimod in capsules,[1]; [5],0.253 mg/capsule
same,amount of tasquinimod in capsules,[1]; [6],0.247 mg/capsule
same,amount of tasquinimod in capsules,[1]; [7],0.493 mg/capsule
same,amount of tasquinimod in capsules,[1]; [8],0.487 mg/capsule
same,amount of tasquinimod in capsules,[1]; [9],1.04 mg/capsule
same,amount of tasquinimod in capsules,[1]; [10],1.04 mg/capsule
same,amount of tasquinimod in capsules,[1]; [11],1.00 mg/capsule
same,amount of tasquinimod in capsules,[1]; [12],1.01 mg/capsule
same,amount of tasquinimod in capsules,[1]; [13],0.993 mg/capsule
same,amount of tasquinimod in capsules,[1]; [14],0.985 mg/capsule
"COc1cccc2c1c(O)cc(=O)n2C [Compound III, 4-hydroxy-5-methoxy-1-methylquinolin-2(1H)-one]",change of the amount of the compound in tasquinimod drug product on storage,[2],increase under any conditions
same,"amount of compound III in capsules, relative to the amount of tasquinimod",[1]; [3],0.10 % w/w
same,"amount of compound III in capsules, relative to the amount of tasquinimod",[1]; [4],0.10 % w/w
same,"amount of compound III in capsules, relative to the amount of tasquinimod",[1]; [5],0.12 % w/w
same,"amount of compound III in capsules, relative to the amount of tasquinimod",[1]; [6],0.24 % w/w
same,"amount of compound III in capsules, relative to the amount of tasquinimod",[1]; [7],0.08 % w/w
same,"amount of compound III in capsules, relative to the amount of tasquinimod",[1]; [8],0.14 % w/w
same,"amount of compound III in capsules, relative to the amount of tasquinimod",[1]; [9],0.13 % w/w
same,"amount of compound III in capsules, relative to the amount of tasquinimod",[1]; [10],0.12 % w/w
same,"amount of compound III in capsules, relative to the amount of tasquinimod",[1]; [11],0.14 % w/w
same,"amount of compound III in capsules, relative to the amount of tasquinimod",[1]; [12],0.16 % w/w
same,"amount of compound III in capsules, relative to the amount of tasquinimod",[1]; [13],0.13 % w/w
same,"amount of compound III in capsules, relative to the amount of tasquinimod",[1]; [14],0.21 % w/w
